Data: US10239849B2 (Merck Sharp & Dohme Corp., priority 2015, dated 2019)

What was measured:
[1] = target: T1, glutathione-S-transferase (GST) tagged LXRbeta LBD (ligand binding domain) (Homo sapiens, UniProt P55055); assay: LanthaScreen TR-FRET Liver X Receptor Coactivator Assay, LXR beta-LBD; format: biochemical; conditions: for Emax: efficacy in relation to reference dual agonist T1317, read-out: LXR beta activity at max dose (%) (Emax); for EC50: potency (Inflection Point) of co-activator recruitment, TR-FRET, read-out: LXR beta IP
T1 construct: purchased Invitrogen pv4658.pps
T1 sequence (P55055 222-460 limits assumed): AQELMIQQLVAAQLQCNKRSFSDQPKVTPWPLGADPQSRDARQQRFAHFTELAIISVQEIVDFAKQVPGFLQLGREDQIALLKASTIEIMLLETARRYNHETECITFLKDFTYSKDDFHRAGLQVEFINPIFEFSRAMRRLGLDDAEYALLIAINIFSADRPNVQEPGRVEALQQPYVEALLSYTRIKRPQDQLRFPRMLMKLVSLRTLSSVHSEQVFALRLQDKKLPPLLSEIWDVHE
Outline: (§1)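 Coactivator recruitment format: receptor LBD exposed to compounds, detection via Tb-antibody/fluorescein-peptide pair, room-temperature incubation, TR-FRET signal on a filter instrument.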

[2] = target: T2, glutathione-S-transferase (GST) tagged LXRalpha LBD (ligand binding domain) (Homo sapiens, UniProt Q13133); assay: LanthaScreen TR-FRET Liver X Receptor Coactivator Assay, LXR alpha-LBD; format: biochemical; conditions: for Emax: efficacy in relation to reference dual agonist T1317, read-out: LXR alpha activity at max dose (%) (Emax); for EC50: potency (Inflection Point) of co-activator recruitment, TR-FRET, read-out: LXR alpha IP
T2 construct: purchased Invitrogen pv4655
T2 sequence (Q13133 209-447 limits assumed): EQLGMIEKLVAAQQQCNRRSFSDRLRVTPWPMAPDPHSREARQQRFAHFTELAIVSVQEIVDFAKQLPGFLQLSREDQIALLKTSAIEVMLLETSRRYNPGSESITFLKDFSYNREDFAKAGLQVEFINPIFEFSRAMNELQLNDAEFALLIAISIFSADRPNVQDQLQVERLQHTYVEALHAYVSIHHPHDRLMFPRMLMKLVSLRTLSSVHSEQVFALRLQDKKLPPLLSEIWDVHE
Outline: as §1

Row | SMILES | Emax [1] [%] | EC50 [1] [µM] | Emax [2] [%] | EC50 [2] [µM]
1 | CN(C)C(=O)c1ccc(-c2cnc(N3CCN(C(=O)OC(C)(C)C)CC3)c(Cl)c2)cc1Cl [Example 9-1, tert-butyl 4-(3-chloro-5-(3-chloro-4-(dimethylcarbamoyl)phenyl)pyridin-2-yl)piperazine-1-carboxylate] | 61 | 0.055 | 48 | 1.35
2 | C=Cc1cc(-c2ccc(C(=O)N(C)C)c(Cl)c2)cnc1N1CCN(C(=O)OC(C)(C)C)CC1 [Example 9-2, tert-butyl 4-{5-[3-chloro-4-(dimethylcarbamoyl)phenyl]-3-ethenylpyridin-2-yl}piperazine-1-carboxylate] | 49 | 0.161 | 38 | 3.44
3 | CN(C)C(=O)c1ccc(-c2cnc(N3CCN(C(=O)OC(C)(C)C)CC3)c(CO)c2)cc1Cl [Example 9-3, tert-butyl 4-{5-[3-chloro-4-(dimethylcarbamoyl)phenyl]-3-(hydroxymethyl)pyridin-2-yl}piperazine-1-carboxylate] | 57 | 0.73 | 34 | 30.1
4 | CN(C)C(=O)c1ccc(-c2cnc(N3CCN(C(=O)OC(C)(C)C)CC3)c(C#N)c2)cc1C1CC1 [Example 9-4, tert-butyl 4-{3-cyano-5-[3-cyclopropyl-4-(dimethylcarbamoyl)phenyl]pyridin-2-yl}piperazine-1-carboxylate] | 68 | 0.676 | 39 | 4.63
5 | C#Cc1cc(-c2ccc(C(=O)N(C)C)c(Cl)c2)cnc1N1CCN(C(=O)OC(C)(C)C)CC1 [Example 9-5] | 59 | 0.062 | 49 | 2.36
